Measured values published in EP0398426A1, “Antirhinoviral (thio)morpholinyl and piperazinyl alkylphenol ethers” (JANSSEN PHARMACEUTICA N.V., priority 1989, dated 1990).
In brackets after ≈: the same amount, converted by molar mass.

Assays:
[1] = test system: Human Rhinovirus serotypes HRV- 2,-29,-39,-85,-9,-15,-51,-59,-63,-89,-41; assay: Picornavirus Minimal Inhibitory Concentration Test (cytopathic effect reduction assay), first panel of rhinoviruses; format: cell-based; details: Human rhinovirus sp.; medium value of the IC50-values of all serotypes of the first panel; Ohio Hela cells, 3 to 5 days at 33°C; concentration protecting 50% of the cells from cytopathic effects; read-out: Med₁
Experimental: (§1) The Minimal Inhibitory Concentration of the compounds of the present invention against the Human Rhinovirus strains (HRV) -2,-9,-14,-15,-29,-39,-41,-42,-45,-51,-59,-63, -70,-72,-85,-86,-89 was determined by a standard cytopathic effect reduction assay as follows. To each of the ninty six (96) wells of a microtiter 96 well tissue culture plate there was added 60 µl of a Ohio Hela cell maintenance medium [Eagle's Basal medium supplemented with 5% Foetal Calf Serum (FCS)]. To two wells there was added 60 µl of an appropriate starting dilution of a compound of formula (I) and two-fold dilutions were made to cover a wide range of compound concentrations. Subsequently there were added 120 µl of an infectious solution of virus in Eagle's Basal Medium with 2% Hepes buffer, 2% FCS and 30 mM MgCl₂ to all wells except cell and compound controls. Said infectious virus solution having a TCID₅₀-value (Tissue Culture Infectious Dose) of about 100.
(§2) The TCID₅₀-value is the dose of viruses which initiates a cytopathic effect in 50% of the inoculated cells. 150 µl of the thus obtained virus-compound mixtures were then transferred to microtitre plates with subconfluent Ohio Hela Cells, grown in 100 µl of maintenance medium. Appropriate virus controls, cell controls and compound controls were included in each test. […] The IC₅₀-value for each virus-compound series was taken as the concentration in ng/ml that protected 50% of the cells from cytopathic effects with respect to the untreated controls. In the standard test procedure, the compounds were tested against two panels of rhinoviruses, a first panel consisting of serotypes HRV- 2,-29,-39,-85,-9,-15,-51,-59,-63,-89,-41 and the other panel consisting of HRV-42,-45,-14,-70,-72 and -86.
(§3) The IC₅₀-value for each rhinovirus serotype was determined, and the efficacy of each compound was determined in terms of the Med₁-value and Med₂-value, which is the medium value of the IC₅₀-values of all serotypes from the first and second panel respectively.

[2] = test system: Human Rhinovirus serotypes HRV-42,-45,-14,-70,-72 and -86; assay: Picornavirus Minimal Inhibitory Concentration Test (cytopathic effect reduction assay), second panel of rhinoviruses; format: cell-based; details: Human rhinovirus sp., HRV42, HeLa, read-out: Med₂
Experimental: as §1, §2, §3

Row | SMILES | IC50 [1] [ng/mL] | IC50 [2] [ng/mL]
1 | CCOC(=O)c1ccc(OCCC2CN(c3nnc(C)s3)CCO2)cc1 (stereo not drawn) [compound 21] | 6 (≈ 0.0159 µM) | 21 (≈ 0.0556 µM)
2 | CCOC(=O)c1ccc(OCCC2CN(c3ccc(C)nn3)CCO2)cc1 (stereo not drawn) [compound 26] | 5 (≈ 0.0135 µM) | 29 (≈ 0.0781 µM)
3 | CCOC(=O)c1ccc(OCCC2CN(c3ccc(SC)nn3)CCO2)cc1 (stereo not drawn) [compound 23, ethyl 4-[2-[4-[6-(methylthio)-3-pyridazinyl]-2-morpholinyl]ethoxy]benzoate] | 3 (≈ 0.00743 µM) | 12 (≈ 0.0297 µM)
4 | CCOC(=O)c1ccc(OCCC2CN(c3ccc(Cl)nn3)CCO2)cc1 (stereo not drawn) [compound 11] | 6 (≈ 0.0153 µM) | 29 (≈ 0.074 µM)
5 | CCOC(=O)c1ccc(OCCC2CN(c3ccc(Br)nn3)CCO2)cc1 (stereo not drawn) [compound 17] | 2 (≈ 0.00458 µM) | 22 (≈ 0.0504 µM)
6 | CCOC(=O)c1ccc(OCCC2CN(c3ccc(I)nn3)CCO2)cc1 (stereo not drawn) [compound 20] | 2 (≈ 0.00414 µM) | 12 (≈ 0.0248 µM)
